Experimental data from ChEMBL document CHEMBL5674860, “Optimized Dual-Glo Assay to identify co-culture-induced drug vulnerabilities in 3D CRC models” (2024).

How the values were obtained:
Format in all cases: functional, Homo sapiens
Design in all cases: dose or concentration left out as unconfirmed
Colon cancer organoid [1] = assay: Optimized Dual-Glo assay to identify co-culture induced drug vulnerabilities using donated chemical probes and chemogenomics kinase set in O14 CRC organoid and F14 CAF mono and co-culture. […] Cell viability is reported both mono and co-culture models.
Colon cancer organoid [2] = assay: Optimized Dual-Glo assay to identify co-culture induced drug vulnerabilities using donated chemical probes and chemogenomics kinase set in O06 CRC organoid and F06 CAF mono and co-culture. […] Cell viability is reported both mono and co-culture models.
Colon cancer organoid [3] = assay: Optimized Dual-Glo assay to identify co-culture induced drug vulnerabilities using donated chemical probes and chemogenomics kinase set in O20 CRC organoid and F20 CAF mono and co-culture. […] Cell viability is reported both mono and co-culture models.
[4] = Culture type Co-Culture, Transduced with Lucferase2-P2A-EGFP lentivirus
[5] = Culture type Co-Culture, Transduced with Renilla-dsRed lentivirus
[6] = Culture type Mono-Culture, Transduced with Lucferase2-P2A-EGFP lentivirus
[7] = Culture type Mono-Culture, Transduced with Renilla-dsRed lentivirus

Row | SMILES | Cell Viability (Colon cancer organoid [1]; [4]) | Cell Viability (Colon cancer organoid [1]; [5]) | Cell Viability (Colon cancer organoid [1]; [6]) | Cell Viability (Colon cancer organoid [1]; [7]) | Cell Viability (Colon cancer organoid [2]; [4]) | Cell Viability (Colon cancer organoid [2]; [5]) | Cell Viability (Colon cancer organoid [2]; [6]) | Cell Viability (Colon cancer organoid [2]; [7]) | Cell Viability (Colon cancer organoid [3]; [4]) | Cell Viability (Colon cancer organoid [3]; [5]) | Cell Viability (Colon cancer organoid [3]; [6]) | Cell Viability (Colon cancer organoid [3]; [7])
1 | Cc1c(NC(=O)c2ccc(C(C)(C)C)cc2)cccc1-c1cn(C)c(=O)c(Nc2ccc(C(=O)N3CCOCC3)cc2)n1 | 85.4676% | 81.7664% | 100.184% | 91.8671% | 105.279% | 113.435% | 83.7541% | 97.4758% | 109.579% | 88.3582% | 122.68% | 92.088%
2 | COc1cc(Nc2nccc(-c3cnn4nc(OC)ccc34)n2)cc(C(F)(F)F)c1 | 8.865% | 107.014% | 18.5626% | 63.2458% | 25.4978% | 199.418% | 18.9413% | 49.3331% | 11.0854% | 189.711% | 12.7509% | 71.1906%
3 | COc1cc(-c2cn([C@H]3CCc4c(F)cccc4N(CC(F)(F)F)C3=O)nn2)ccc1-n1cnc(C)c1 | 75.4426% | 112.422% | 84.8132% | 97.4006% | 117.399% | 118.336% | 87.9333% | 111.054% | 119.382% | 109.286% | 102.589% | 90.6954%
4 | CCc1cc2cc(NS(=O)(=O)c3ccc(C#N)cc3)ccc2n(CC)c1=O | 89.9895% | 94.6782% | 98.1459% | 101.615% | 88.2132% | 102.933% | 126.115% | 101.813% | 195.321% | 99.0217% | 112.066% | 92.4545%
5 | CC(C)(O)[C@H](F)CN1Cc2cc(NC(=O)c3cnn4cccnc34)c(N3CCOCC3)cc2C1=O | 134.835% | 74.5238% | 106.331% | 78.3332% | 120.796% | 89.8431% | 75.3772% | 93.3836% | 123.767% | 88.3121% | 99.4921% | 83.0265%
6 | CN(C)C(=O)c1ccc(-c2cc(C(=O)N[C@@H]3CCc4ccccc43)no2)cc1O | 73.2649% | 147.75% | 80.1245% | 134.73% | 113.879% | 93.2478% | 92.6679% | 134.315% | 98.4389% | 104.475% | 121.813% | 120.44%
7 | COc1cc(-c2cn([C@H]3CCc4ccccc4N(CC(F)(F)F)C3=O)nn2)ccc1-n1ccc(C)n1 | 109.774% | 96.1466% | 102.384% | 99.9901% | 93.4988% | 122.107% | 86.5665% | 106.482% | 70.0794% | 119.033% | 80.8006% | 95.6811%
8 | CN(C)C(=O)c1ccc(-c2cc(C(=O)N(C)C3CCCC3)no2)cc1O | 78.738% | 108.435% | 99.3256% | 115.997% | 126.057% | 129.278% | 114.98% | 129.58% | 121.535% | 110.433% | 107.717% | 123.756%
9 | c1ccc2oc(-c3csc(C4CCN(Cc5nc6ncccc6[nH]5)CC4)n3)cc2c1 | 119.834% | 111.13% | 91.6979% | 94.4275% | 118.221% | 124.83% | 91.0093% | 102.554% | 55.8408% | 105.216% | 98.8646% | 99.5308%
10 | CN(C(=O)c1cnn2cccnc12)c1cc2c(cc1N1CCOCC1)C(=O)N(C[C@@H](F)C(C)(C)O)C2 | 89.5893% | 113.489% | 112.103% | 103.195% | 93.6773% | 65.3185% | 72.0703% | 97.8487% | 85.0124% | 89.8275% | 94.3235% | 98.269%
11 | COc1cc(Nc2nc(C)cc(-c3cnn4nc(OC)ccc34)n2)cc(C(F)(F)F)c1 | 103.629% | 105.362% | 103.076% | 99.2277% | 131.373% | 124.179% | 105.332% | 118.145% | 136.021% | 99.6244% | 133.384% | 109.532%
12 | CCOc1ccc(S(=O)(=O)Nc2ccc(Cl)cc2C#Cc2cnc(C(=O)[O-])cc2OC)c2ncccc12.[K+] | 128.517% | 94.7736% | 96.9622% | 95.2003% | 117.764% | 113.31% | 103.254% | 83.0425% | 109.87% | 117.362% | 101.299% | 92.0089%
13 | CC1=CC(C)=[N+]2C1=C(CCCCc1cn(CC(=O)N3CCc4nc(NC(=O)[C@H]5CCN(C#N)C5)sc4C3)nn1)c1c(C)cc(C)n1[B-]2(F)F | 88.5952% | 139.238% | 60.7776% | 90.2828% | 125.029% | 111.523% | 94.7301% | 81.9832% | 77.2227% | 101.216% | 73.7517% | 82.644%
14 | COc1ccccc1C(=O)Nc1cc2c(cc1N1CCNCC1C)n(C)c(=O)n2C (stereo not drawn) | 109.979% | 135.305% | 100.033% | 95.8386% | 112.155% | 138.916% | 92.5462% | 113.336% | 130.677% | 107.173% | 124.631% | 104.05%
